Assay results reported in patent US9000023B2, “Disubstituted phthalazine hedgehog pathway antagonists” (Eli Lilly and Company, priority 2009, dated 2015).
Where a name gives a salt, the structure may show the parent alone.

Key:
Gli1 in Daoy cells = experiment: Functional assay for measuring the inhibition of Gli1 in Daoy cells (bDNA assay); format: cell-based; conditions: Homo sapiens; Daoy cells stimulated with Shh conditioned media, 24 hours with compound, Gli1 transcript by bDNA luminescence
Procedure: All ligands, solvents, and reagents employed in the following assay are readily available from commercial sources or can be readily prepared by one skilled in the art. Biological activity is determined using a functional assay in Daoy neuronal cancer cells and measures levels of Gli1 ribonucleic acid via a bDNA (branched deoxyribonucleic acid) assay system (Panomics, Inc., Fremont, Calif.). Gli was originally discovered in a Glioblastoma cell line and encodes a zinc finger protein that is activated by Shh signaling. The maximum response is obtained by inducing Gli1 transcription in the Daoy cells with conditioned medium (human embryonic kidney, HEK-293 cells stably expressing recombinant Shh) for 24 hours and then measuring the amount of stimulated Gli1 transcript. […] The bDNA assay system utilizes the technology of branched-chain DNA to allow amplification of a target ribonucleic acid (transcript). […] The addition of a chemilumigenic substrate during the amplification step allows for detection using luminescence. […] The cells are removed from the T225-flasks using trypsin ethylenediaminetetraacetic acid (EDTA), centrifuged, resuspended in media, and then counted. […] The signal is quantified by reading the plates on a Perkin Elmer Envision reader detecting luminescence. […]

CYP3A4 = CYP3A4 (Homo sapiens, UniProt P08684); experiment: CYP3A4 Inhibition Assay (human liver microsomes, midazolam substrate); conditions: pH 7.4, probe midazolam (5 μM; formation of 1-OH-midazolam)
CYP3A4, sequence (P08684 whole entry): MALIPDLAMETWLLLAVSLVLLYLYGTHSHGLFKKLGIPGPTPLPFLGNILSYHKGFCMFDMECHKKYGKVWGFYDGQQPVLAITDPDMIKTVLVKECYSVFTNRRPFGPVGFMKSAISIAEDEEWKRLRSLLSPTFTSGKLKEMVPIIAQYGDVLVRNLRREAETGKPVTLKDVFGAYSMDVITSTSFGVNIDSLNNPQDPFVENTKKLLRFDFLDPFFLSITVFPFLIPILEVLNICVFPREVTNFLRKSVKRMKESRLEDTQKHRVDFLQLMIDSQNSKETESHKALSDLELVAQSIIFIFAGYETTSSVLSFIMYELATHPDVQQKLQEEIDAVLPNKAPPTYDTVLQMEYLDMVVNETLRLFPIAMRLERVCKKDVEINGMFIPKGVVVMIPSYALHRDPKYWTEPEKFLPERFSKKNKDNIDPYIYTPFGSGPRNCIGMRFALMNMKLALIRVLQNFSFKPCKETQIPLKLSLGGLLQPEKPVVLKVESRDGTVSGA

CN(C(=O)c1ccc(F)cc1C(F)(F)F)C1CCN(c2nnc(-c3ccnn3C)c3ccccc23)CC1 [Example 1a, 4-Fluoro-N-methyl-N-(1-(4-(1-methyl-1H-pyrazol-5-yl)phthalazin-1-yl)piperidin-4-yl)-2-(trifluoromethyl)benzamide hydrochloride]
IC50 (Gli1 in Daoy cells): ~2.4 nM
inhibition at 3 min, 10 μM (CYP3A4): 13.5%
